Values quoted from earlier work, collected in patent publication US20200093158A1, “COMPOSITIONS AND COMBINATIONS FOR USE AS FOOD SUPPLEMENTS FOR ANIMALS” (OmniGen Research, LLC, priority 2014, published 2020).

How the values were obtained:
larvae of common carp = conditions: 1.76 parts per million of NH3, after 24 hours
[1] = system: turbot (Scophthalmus maximus) juveniles
[2] = 71.5 parts per million in diet for 8 weeks; 72 hours ammonia at 0.02, 0.2, 2 ppm (not at 20 ppm); vs control shrimp

Row | SMILES | mortality (larvae of common carp) [%] | physiological disturbances ([1]; adapted small turbot, up to 0.4-0.5 parts per million) | mortalities ([1]; turbot juveniles, 4-6 weeks, up to 0.4 parts per million unionized ammonia, 16.5-17.5° C., pH 7.92-8.03) | survival rates under ammonia exposure [2]
1 | N [NH3, ammonia] | 50 | no major physiological disturbances | no mortalities | 
2 | CC1=C(/C=C/C(C)=C/C=C/C(C)=C/C=C/C=C(C)/C=C/C=C(C)/C=C/C2=C(C)C(=O)[C@@H](O)CC2(C)C)C(C)(C)C[C@H](O)C1=O [astaxanthin] |  |  |  | higher
